In ChEMBL document CHEMBL4842348 (J Med Chem, 2021):

How the values were obtained:
[1] = Tmax in Beagle dog at 2 mg/kg, po; format: ADME, organism-based, Canis lupus familiaris; settings: in vivo
[2] = Volume of distribution at steady state in Beagle dog at 0.5 mg/kg, iv; format: ADME, organism-based, Canis lupus familiaris; settings: in vivo, read-out: Vdss
[3] = Plasma clearance in Beagle dog at 0.5 mg/kg, iv; format: ADME, organism-based, Canis lupus familiaris
[4] = Normalized AUC (0 to 72 hrs) in high fat diet fed dog at 1 mg/kg, po in 0.5% methocel; format: ADME, organism-based, Canis lupus familiaris; settings: in vivo
[5] = Drug recovery in bile duct cannulated single po dosed rhesus monkey assessed as recovered parent compound in plasma measured at 2 hrs relative to total recovery; format: ADME, organism-based, Macaca mulatta; settings: in vivo
[6] = MRT in Beagle dog at 0.5 mg/kg, iv; format: ADME, organism-based, Canis lupus familiaris; settings: in vivo
[7] = Bioavailability in CD1 mouse at 1 mg/kg, iv and 2 mg/kg, po; format: ADME, organism-based; settings: in vivo
[8] = Cmax in Beagle dog at 2 mg/kg, po; format: ADME, organism-based, Canis lupus familiaris; parameters: route oral, dose 2 mg/kg; settings: in vivo
[9] = Normalized AUC (0 to 72 hrs) in fasted dog at 1 mg/kg, po in 0.5% methocel; format: ADME, organism-based, Canis lupus familiaris; settings: in vivo
[10] = Oral bioavailability in WH rat at 2 mg/kg; format: ADME, organism-based; settings: in vivo
[11] = Drug recovery in bile duct cannulated single po dosed rhesus monkey assessed as recovered parent compound in bile relative to total recovery; format: ADME, organism-based, Macaca mulatta; settings: in vivo
[12] = Half life in lean wild type mouse adipose tissue at 10 mg/kg, po qd treated for 40 days; format: ADME, organism-based; settings: time 40 day
[13] = Half life in lean NFR-transgenic mouse adipose tissue at 10 mg/kg, po qd treated for 40 days; format: ADME, organism-based; settings: time 40 day
[14] = Cmax in high fat diet fed dog at 1 mg/kg, po in Imwitor/Tween; format: ADME, organism-based, Canis lupus familiaris; parameters: route oral, dose 1 mg/kg; settings: in vivo
[15] = Half life in DIO wild type mouse plasma at 10 mg/kg, po qd treated for 40 days; format: ADME, organism-based; settings: time 40 day
[16] = Terminal half life in DIO NFR-transgenic mouse liver at 10 mg/kg, po once daily for 14 days; format: ADME, organism-based; settings: time 14 day, read-out: beta t1/2 (converted)
[17] = Half life in lean wild type mouse plasma at 10 mg/kg, po qd treated for 40 days; format: ADME, organism-based; settings: time 40 day
[18] = Plasma clearance in rhesus monkey at 0.5 mg/kg, iv; format: ADME, organism-based, Macaca mulatta
[19] = Drug recovery in bile duct cannulated single iv dosed WH rat assessed as recovered parent compound in plasma measure at 2 hrs relative to total recovery; format: ADME, organism-based; settings: in vivo
[20] = Terminal half life in Beagle dog at 0.5 mg/kg, iv; format: ADME, organism-based, Canis lupus familiaris; settings: in vivo, read-out: beta t1/2 (converted)
[21] = Drug recovery in bile duct cannulated single po dosed WH rat assessed as recovered total urine radioactivity; format: ADME, organism-based; settings: in vivo
[22] = Volume of distribution at steady state in WH rat at 1 mg/kg, iv; format: ADME, organism-based; settings: in vivo, read-out: Vdss
[23] = Drug recovery in bile duct cannulated single po dosed WH rat assessed as recovered parent compound in feces relative to total recovery; format: ADME, organism-based; settings: in vivo

- Tmax [1]: 1.7 h
- Vd [2]: 0.54 L/kg
- clearance [3]: 0.0312 L/h/kg
- AUC/dose [4]: 4.2 µM·kg·h/mg
- Drug recovery [5]: > 99%
- MRT [6]: 18 h
- bioavailability [7]: 43%
- Cmax [8]: 0.69 µM
- AUC/dose [9]: 6.5 µM·kg·h/mg
- bioavailability [10]: 65%
- Drug recovery [11]: < 1%
- half-life [12]: 0.8 h
- half-life [13]: 36 h
- Cmax [14]: 1.3 µM
- half-life [15]: 67.2 h
- half-life at […] [16]: 5.5 h
- half-life [17]: 0.8 h
- clearance [18]: 0.0234 L/h/kg
- Drug recovery [19]: > 96%
- half-life [20]: 15 h
- Drug recovery [21]: 0%
- Vd [22]: 2.4 L/kg
- Drug recovery [23]: > 98%
SMILES: COc1ncc(-c2ccc(C(=O)O)cc2C)cc1-c1ccc(C(F)(F)F)cc1[C@@H]1CC[C@H]2[C@@H](c3cc(C(F)(F)F)cc(C(F)(F)F)c3)OC(=O)N12
